2 molecules from publication PMC4459817, “Vasculotide reduces endothelial permeability and tumor cell extravasation in the absence of binding to or agonistic activation of Tie2” (EMBO Molecular Medicine, 2015) can be followed below.

Assay [1] relates to CMPTX-labeled tumor cells across HMVEC-LBl. Kind of assay: modified Boyden chamber, trans-endothelial tumor cell migration, HMVEC-LBl. The format is cell-based, human. The settings on record: 20 h, Fig1B, C. Here is the method: ECs were first treated with Vasculotide (VT), PBS (vehicle/negative control), Ang1 (positive control), PEG-Cys (polyethylene glycol backbone), T7c (non-PEGylated CHHHRHSF peptides), or VT in the presence of 100-fold molar excess of T7c. The concentrations used, 10–20 ng/mL VT and 200–400 ng/mL Ang1, are estimated molar equivalents (0.71–1.43 nM). Thirty minutes later, ECs were stimulated with thrombin, 0.1% BSA (vehicle/negative control), or EDTA (positive control). Another 30mins later, the amount of FITC-dextran diffusion into the lower chambers (A, D) provides a measure of endothelial permeability. CMTPX-labeled tumor cells (TCs) were then dispensed into inserts, and the amount of TC fluorescence emitting from the underside of insert membranes after 20 h (B–C) or 28 h (E) reflects the efficiency of trans-endothelial TC migration. […] Three experiments (twice with HMVEC-LBl and once with HMVEC-DBl) were run with n = 3–5 inserts (independent biological replicates) per group and analyzed by two-sampled unpaired t-tests. […]
Endothelial cells (ECs) were grown on cell culture inserts with uncoated 8-μm-pore PET filter membranes to 100% confluency. […] After 30 min of thrombin stimulation or 4–6 h of TC-CM stimulation, FITC fluorescence (ex/em = 490/520 nm) was measured from a 50 μl sample of the lower chamber media. […]

The subject of assay [2] is dermal HMVECs. In words: modified Boyden chamber, tumor cell-conditioned media (TC-CM) stimulated dextran permeability. Type of assay: cell-based, human. Particulars: 20 ng/mL VT or 400 ng/mL Ang1 vs PBS; paired t-test, n = 11 experimental replicates; Fig4A. Here is the method:
To investigate this possibility in vitro, we performed modified Boyden chamber assays where we stimulated ECs with tumor cell-conditioned media (TC-CM)—that is, supplement-reduced EC growth media containing all the cytokines naturally secreted by LM2-4^luc, SN12^luc, or HT29^luc cells over 30 hours of hypoxic incubation (1% O2).
Meta-analyses of treatment effects on dextran permeability (A) and tumor cell migration (B), where each datapoint represents the mean of an independent experiment, averaged over 2–3 biological replicates (inserts) per treatment group and normalized internally within that same experiment.
Endothelial cells (ECs) were grown on cell culture inserts with uncoated 8-μm-pore PET filter membranes to 100% confluency. See Supplementary Fig S4 for detailed timelines. […] Permeability assays: A total of 100 μg of FITC-dextran (Sigma FD-20S) was dispensed into the upper chamber media. After 30 min of thrombin stimulation or 4–6 h of TC-CM stimulation, FITC fluorescence (ex/em = 490/520 nm) was measured from a 50 μl sample of the lower chamber media. […] CMPTX fluorescence from migrated TCs was then quantified from 10× microscopy images using a MATLAB (MathWorks, Natick, MA, USA) script; five images (technical replicates) were analyzed per insert. […]

As to “CHHHRHSF [Vasculotide, 4-armed maleimide-functionalized polyethylene glycol (PEG) backbone to link together four cysteine-capped T7 peptides, that is, CHHHRHSF]”, the “thrombin-stimulated migration of CMTPX-labeled TCs” value in assay [1] was “trends of reducing thrombin-stimulated migration”. Besides, the “transendothelial macromolecular (dextran) permeability in presence of TC-CM” value in assay [2] is recorded as “reduced transendothelial macromolecular permeability (P < 0.05”.

B1: recombinant human Ang1 (rhAng1) (ligand, UniProt Q15389 16-498, looked up)
chain: HIGCSNQRRSPENSGRRYNRIQHGQCAYTFILPEHDGNCRESTTDQYNTNALQRDAPHVEPDFSSQKLQHLEHVMENYTQWLQKLENYIVENMKSEMAQIQQNAVQNHTATMLEIGTSLLSQTAEQTRKLTDVETQVLNQTSRLEIQLLENSLSTYKLEKQLLQQTNEILKIHEKNSLLEHKILEMEGKHKEELDTLKEEKENLQGLVTRQTYIIQELEKQLNRATTNNSVLQKQQLELMDTVHNLVNLCTKEGVLLKGGKREEEKPFRDCADVYQAGFNKSGIYTIYINNMPEPKKVFCNMDVNGGGWTVIQHREDGSLDFQRGWKEYKMGFGNPSGEYWLGNEFIFAITSQRQYMLRIELMDWEGNRAYSQYDRFHIGNEKQNYRLYLKGHTGTAGKQSSLILHGADFSTKDADNDNCMCKCALMLTGGWWFDACGPSNLNGMFYTAGQNHGKLNGIKWHYFKGPSYSLRSTTMMIRPLDF
notes: angiopoietin-1, human, recombinant; also called angiopoietin-1; source: bought: R&D Systems (named for the Boyden chamber experiments)
B1: the “thrombin-stimulated migration of CMTPX-labeled TCs” value in assay [1] is “counteract thrombin induction of trans-endothelium macromolecular permeability and tumor cell migration”. The “transendothelial macromolecular (dextran) permeability in presence of TC-CM” value in assay [2] is “reduced transendothelial macromolecular permeability (P < 0.05”.
